From patent US9540354B2, “Diamide inhibitors of cytochrome P450” (SEQUOIA PHARMACEUTICALS, INC., priority 2008, dated 2017)

Molecule `Cc1cc(CC(C(=O)NCc2ccc3occc3c2)C(=O)N(CC(C)C)CC(C)C)n(C)n1` (stereo not shown) [Cmpd. 9] has a melting point of 85.5 to 86 °C.
